Experimental data as given in patent publication US20230128194A1, “METHODS AND COMPOSITIONS TO ALTER HEPATIC GABA RELEASE TO TREAT OBESITY-RELATED CONDITIONS” (ARIZONA BOARD OF REGENTS ON BEHALF OF THE UNIVERSITY OF …, priority 2017, published 2023).

Assays:
Kir2.1 = target: T1, Kir2.1 (Homo sapiens, UniProt P63252); experiment: Barium induced change in hepatocyte membrane potential in Kir2.1 and eGFP expressing mice; assay type: in vivo, mouse; settings: 50 μM bath application
T1 construct: host or cells: hepatocytes of wildtype mice in vivo, AAV8 with TBG promoter
T1 sequence (P63252 1-427): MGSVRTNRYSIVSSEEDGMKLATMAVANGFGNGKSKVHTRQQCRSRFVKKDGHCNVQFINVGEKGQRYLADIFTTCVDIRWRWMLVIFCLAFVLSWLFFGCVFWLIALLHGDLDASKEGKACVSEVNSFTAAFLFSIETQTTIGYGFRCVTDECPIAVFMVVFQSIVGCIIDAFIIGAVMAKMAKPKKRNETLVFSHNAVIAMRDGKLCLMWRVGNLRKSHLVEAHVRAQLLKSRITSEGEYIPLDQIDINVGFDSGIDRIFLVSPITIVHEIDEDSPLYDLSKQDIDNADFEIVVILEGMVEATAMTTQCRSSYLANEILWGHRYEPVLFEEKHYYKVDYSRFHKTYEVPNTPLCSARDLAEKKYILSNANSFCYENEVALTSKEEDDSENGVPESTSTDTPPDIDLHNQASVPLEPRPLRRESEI

[1] = tested on: high fat diet-induced obese mice; experiment: GABA-T inhibitors (8 mg/day IP) in HFD-induced obese mice: body weight, serum insulin/glucose/glucagon, OGTT, ITT; assay type: in vivo, mouse
Description: (§1) All animal studies were conducted using male wildtype C57BL/6J mice purchased from Jackson Laboratories or bred in-house (Bar Harbor, Me.). Mice were kept on a 14-hour light/10-hour dark schedule and housed 3-5 mice per cage until 1 week prior to study initiation, at which point animals were individually housed. Studies were conducted in lean chow fed mice (7013 NIH-31, Teklad WI, 3.1 kcal/g, 18% kcal from fat, 59% kcal from carbohydrate, 23% kcal from protein) at 12-16 weeks of age. Studies in diet-induced obese mice dosed intraperitoneally with GABA transaminase inhibitors, mice treated with ethanolamine-O-sulfate in their drinking water, and mice treated with GABA-T targeted or scramble control antisense oligonucleotides (ASO) were performed after 8-10 weeks on a high fat diet (TD 06414, Teklad WI, 5.1 kcal/g, 60.3% kcal from fat, 21.3% kcal from carbohydrate, 18.4% kcal from protein; 20-26 weeks of age). For ASO studies, mice were stratified by body weight and assigned to an injection treatment (control or GABA-T). Studies in obese vagotomy and sham mice were performed after 9 weeks of high fat diet feeding. Unless fasted, mice had ad libitum access to food and water. All studies were approved by The University of Arizona Institutional Animal Care and Use Committee.
(§2) Wildtype lean and obese mice were randomly divided into treatment groups and dosed daily with 8 mg of ethanolamine-O-sulfate (EOS; Sigma-Aldrich, St. Louis, Mo.), vigabatrin (United States Pharmacopeia, Rockville, Md.) or PBS. Obese sham and vagotomy mice were dosed daily with 8 mg of EOS. In all cases, basal bleeds were taken prior to initiation of an ITT. Lean mice received treatment by oral gavage (0.3 mL/mouse) while obese mice were treated by intraperitoneal injection (0.3 mL/mouse). Pre-treatment studies were conducted in the week immediately prior to beginning drug administration. Daily doses took place at 9 am each day and oral glucose tolerance tests (OGTT) and insulin tolerance tests (ITT) were performed on the third and fourth days of treatment in lean mice, respectively. In wildtype obese mice, OGTT and ITT were performed on the fourth day of treatment in separate cohorts. On the fifth day of treatment, 2DG clearance studies were performed. In sham/vagotomy mice, OGTT and ITT were performed on the fourth and fifth day of treatment, respectively. After a 2-week washout period without treatment injection, a basal bleed and bleed 15 minutes after an oral glucose gavage ([…]) to determine oral glucose stimulated insulin secretion were performed.
(§3) Oral glucose (2.5 g/kg; 0.1 mL/10 g body weight; Chem-Impex Int'l Inc., Wood Dale, Ill.) was given to 4 hour fasted individually housed mice. All glucose tolerance tests began at […] and glucose was measured in whole blood, collected from the tail vein, by glucometer (Manufacture #D2ASCCONKIT, Bayer, Leverkusen, Germany) at 0, 15, 30, 60, 90, and 120 minutes after glucose gavage. Blood for serum insulin (oral glucose stimulated insulin secretion; OGSIS) and glucose determination was collected from the tail vein 15 minutes following glucose administration.
(§4) Intraperitoneal insulin (0.5 U/kg; 0.1 mL/10 g body weight; Sigma Aldrich, St. Louis, Mo.) was given to 4 hour fasted individually housed mice. All insulin tolerance tests began at […] and glucose was measured in whole blood, collected from the tail vein, by glucometer (Manufacture #D2ASCCONKIT, Bayer, Leverkusen, Germany) at 0, 30, 60, 90, and 120 minutes after insulin injection.
(§5) Within 2 hours of collection, blood was left to clot at room temperature for 20 minutes. Thereafter, the blood was centrifuged at 3,000×g for 30 minutes at 4° C. and serum was collected. Serum was stored at −80° C. until metabolite and hormone analyses. A colorimetric assay was used to analyze serum glucose (Cat. #G7519, Pointe Scientific Inc., Canton Mich.). Serum insulin was analyzed by enzyme-linked immunosorbent assay (ELISA; Cat. #80-INSMSU-E01,E10, Alpco, Salem, N.H.). […]

lean mice = experiment: GABA-T inhibitors (8 mg/day oral gavage) in lean mice: glucose homeostasis; assay type: in vivo, mouse; settings: 8 mg/day
Description: as §1, §2, §3, §4, §5

[2] = tested on: PSEM89S ligand-gated depolarizing channel; assay type: in vivo, mouse
Text: (§6) The depolarizing channel (PSAM^L141F,Y115F-5 HT3HC), originally engineered by Dr. Scott Sternsons group, was made by mutating the acetylcholine binding domain of a chimeric channel that included the binding domain of the α7 nicotinic acetylcholine receptor and the ion pore domain of the serotonin receptor 3a. The ligand binding domain mutations (Leu^141→Phe and Tyr^115→Phe) limited the agonist action of acetylcholine and allowed for stimulation by a pharmacologically selective effector molecule PSEM89S. The exogenous ligand PSEM89S opens the serotonin receptor 3a channel allowing Na^+, K^+, and Ca^++ passage into the cell and membrane depolarization. AAV8 viral vectors were used for plasmid delivery in all the reported studies and were synthesized by the Penn Vector Core. Hepatic specific expression of the depolarizing channel was achieved through two different methods. First, expression of a cre-recombinase dependent depolarizing channel was driven by a globally expressed CAG promoter. LoxP sites limited expression to cre-recombinase expressing tissue, and tail vein injection of 1×10^10 viral genome copies established hepatocyte expression in albumin-cre but not wildtype mice. Second, a separate AAV8 viral vector, induced hepatic specific expression of the same depolarizing channel by driving expression using the thyroxine binding globulin (TBG) promoter. Tail vein injection of 1×10^11 viral genome copies established hepatocyte expression (FIG. 18C). The thyroxine binding globulin promoter also drove hepatic expression of the hyperpolarizing, inward-rectifier K^+ channel, Kir2.1. […]
Simultaneous in vivo recordings were performed of hepatocyte membrane potential and hepatic afferent vagal nerve firing activity in anesthetized (isoflurane) mice to directly assess the effect of hepatocyte depolarization on hepatic afferent vagal nerve activity. […] After placement and sealing of the hook electrode, 45-60 minutes of basal nerve activity was monitored/recorded with pClamp software (version 10.2; Molecular Devices) until nerve activity stabilized, after which, treatments began. […]

[3] = tested on: PSEM89S ligand-gated depolarizing channel; experiment: PSEM89S ligand IP in mice with cre-dependent hepatic depolarizing channel: serum insulin, glucose; assay type: in vivo, mouse; settings: 30 mg/kg IP
Text: The depolarizing channel (PSAM^L141F,Y115F-5 HT3HC), originally engineered by Dr. Scott Sternsons group, was made by mutating the acetylcholine binding domain of a chimeric channel that included the binding domain of the α7 nicotinic acetylcholine receptor and the ion pore domain of the serotonin receptor 3a. The ligand binding domain mutations (Leu^141→Phe and Tyr^115→Phe) limited the agonist action of acetylcholine and allowed for stimulation by a pharmacologically selective effector molecule PSEM89S. The exogenous ligand PSEM89S opens the serotonin receptor 3a channel allowing Na^+, K^+, and Ca^++ passage into the cell and membrane depolarization. AAV8 viral vectors were used for plasmid delivery in all the reported studies and were synthesized by the Penn Vector Core. Hepatic specific expression of the depolarizing channel was achieved through two different methods. First, expression of a cre-recombinase dependent depolarizing channel was driven by a globally expressed CAG promoter. LoxP sites limited expression to cre-recombinase expressing tissue, and tail vein injection of 1×10^10 viral genome copies established hepatocyte expression in albumin-cre but not wildtype mice. Second, a separate AAV8 viral vector, induced hepatic specific expression of the same depolarizing channel by driving expression using the thyroxine binding globulin (TBG) promoter. Tail vein injection of 1×10^11 viral genome copies established hepatocyte expression (FIG. 18C). The thyroxine binding globulin promoter also drove hepatic expression of the hyperpolarizing, inward-rectifier K^+ channel, Kir2.1. Tail vein injection of 1×10^11 viral genome copies established hepatocyte specific expression (FIG. 19A). To confirm channel expression and tissue specificity, all viral vector plasmids encoded for enhanced green fluorescent protein (eGFP).
All studies in virus injected mice were conducted at least 5 days post virus injection to allow for maximal channel expression. Individually housed mice were intraperitoneally injected with the ligand for the depolarizing channel (PSEM89S; 30 mg/kg; 0.1 mL/10 g body weight) or PBS (0.1 mL/10 g body weight).
Studies conducted in mice injected with the cre-dependent depolarizing channel virus took place at 8 am. […]
(§7) Within 2 hours of collection, blood was left to clot at room temperature for 20 minutes. […] Serum glucose was analyzed by colorimetric assay (Cat. #G7519, Pointe Scientific Inc., Canton Mich.). Serum insulin was analyzed by enzyme-linked immunosorbent assay (ELISA; Cat. #80-INSMSU-E01,E10, Alpco, Salem, N.H.). Serum glucagon was analyzed by enzyme-linked immunosorbent assay (ELISA; Cat. #10-1281-01, Mercodia, Uppsala, Sweden) from tail vein blood collected at 9 am from fed mice (Vagotomy study) or after a 4 hour fast at 1 PM (Kir2.1 study).

[4] = tested on: PSEM89S ligand-gated depolarizing channel; experiment: PSEM89S ligand IP before oral glucose in mice with TBG promoter driven depolarizing channel; assay type: in vivo, mouse; settings: TBG channel expressing mice
Text: as §6, with “18C).” for “18C). The thyroxine binding globulin promoter also drove hepatic expression of the hyperpolarizing, inward-rectifier K^+ channel, Kir2.1.”
as §7

Na+/K+ ATPase = experiment: liver slice GABA release with Na+/K+ ATPase inhibitor; assay type: cell-based, mouse; settings: 1 mM, bath application
Text: Two liver slices were taken from each mouse.

[5] = tested on: lean mice and obese control or GABA-T ASO treated mice; experiment: leptin sensitivity (single 6 am leptin injection): food intake, body weight; assay type: in vivo, mouse
Description: Lean mice or diet-induced obese control or GABA-T targeted ASO treated mice received an intraperitoneal injection of phosphate buffered saline (PBS; 0.1 mL/10 g body weight) on day 1 and leptin (2 mg/kg; 0.1 mL/10 g body weight; CAT#498-OB, R&D Systems, Minneapolis, Minn.) on day 2 at 6 am. Mice were not fasted before injections. Food and body weight were measured every day at 6 am and 6 pm.

[6] = 8 mg/day IP, four days, relative to pre-treatment
[7] = albumin-cre channel expressing mice
[8] = 30 mg/kg IP 10 minutes before oral glucose 2.5 g/kg
[9] = chow fed mice, single 6AM injection

**Q.** `[Ba+2]` [Ba2+, Barium] was tested. Which depolarization of hepatocytes (Kir2.1; Kir2.1 expressing mice) did it give?
**A.** 6.86±1.54 mV

**Q.** And the “change in hepatocyte membrane potential” value (Kir2.1; control eGFP expressing mice)?
**A.** −0.62±1.86 mV

**Q.** `C=CC(N)CCC(=O)O` (stereo not shown) [vigabatrin] was tested. Which “glucose:insulin ratio” value [1, 6] did it give?
**A.** increased

**Q.** And the serum glucose [1, 6]?
**A.** decreased

**Q.** What about the serum insulin [1, 6] of the same molecule?
**A.** decreased

**Q.** And the body weight ([1]; 8 mg/day IP, through 5 days, vs saline injected mice)?
**A.** remained similar

**Q.** What about the “glucose stimulated serum insulin” value ([1]; treatment day 4, relative to pre-treatment) of the same molecule?
**A.** decreased

**Q.** And the “glucose stimulated serum insulin after washout” value ([1]; two-weeks washout)?
**A.** markedly increased

**Q.** And the “serum insulin and glucose:insulin ratio after washout” value ([1]; two-weeks washout)?
**A.** return of serum insulin and the glucose:insulin ratio to pre-treatment levels

**Q.** What about the “insulin sensitivity assessed by insulin tolerance test (ITT)” value ([1]; within 4 days of initiating treatment) of the same molecule?
**A.** improved

**Q.** And the glucose tolerance (lean mice)?
**A.** no effect

**Q.** What about the insulin sensitivity (lean mice) of the same molecule?
**A.** no effect

**Q.** What about the serum insulin concentrations (lean mice) of the same molecule?
**A.** no effect

**Q.** Which HVAN firing activity ([2]; 30 μM bath application, albumin-cre channel expressing mice) does the source give for `COc1ccc(OC)c(C(=O)N[C@@H]2CN3CCC2CC3)c1.O=C(O)C(F)(F)F` [PSEM89S ligand] here?
**A.** decreased

**Q.** What about the “hepatocyte depolarization at 10 minutes” value ([2]; mouse, in vivo) of the same molecule?
**A.** 17.0±5.4 mV

**Q.** And the maximal hepatocyte depolarization ([2]; mouse, in vivo)?
**A.** 28±5.4 mV

**Q.** And the serum glucose [3, 7]?
**A.** decreased

**Q.** And the serum insulin [3, 7]?
**A.** more than doubled

**Q.** And the “glucose:insulin ratio” value ([3]; albumin-cre mice)?
**A.** decreased

**Q.** And the “serum insulin, glucose, or glucose:insulin ratio” value ([3]; wildtype mice)?
**A.** did not alter

**Q.** What about the “glucose:insulin ratio” value [4, 8] of the same molecule?
**A.** lowered

**Q.** What about the serum insulin [4, 8] of the same molecule?
**A.** elevated

**Q.** What about the “rise in serum glucose following oral glucose gavage” value ([4]; 30 mg/kg IP) of the same molecule?
**A.** did not affect

**Q.** With `C[C@@H]1O[C@@H](O[C@H]2C[C@@H](O)[C@]3(CO)[C@H]4[C@H](O)C[C@]5(C)[C@@H](C6=CC(=O)OC6)CC[C@]5(O)[C@@H]4CC[C@]3(O)C2)[C@H](O)[C@H](O)[C@H]1O` [Ouabain] as the molecule, how does the “increase of liver slice GABA release (μmol/mg DNA)” value (Na+/K+ ATPase) read?
**A.** more than 40%

**Q.** Which results are given for “leptin: anorexigenic hormone leptin (R&D Systems)”?
**A.** body weight [5, 9]: without affecting; light cycle and 24-hour food intake [5, 9]: decreased; relative weight change ([5]; control or GABA-T ASO obese mice, 2 mg/kg): not affected; food intake ([5]; obese mice on either ASO treatment, 2 mg/kg single 6AM injection, any timepoint): did not affect
